Source: US20240182873A1, “PRENYLTRANSFERASE AND A […], TISSUE, AND ORGANISM COMPRISING SAME” (YEDA RESEARCH AND DEVELOPMENT CO. LTD., priority 2021, published 2024)

Assays:
[1] = tested on: Helichrysum umbraculigerum HuPTx (SEQ ID NO: 7), N-terminal plastid targeting sequence removed; test: Steady state kinetic analysis of HuPTx with olivetolic acid and GPP (yeast microsomes, CBGA production); assay type: biochemical; details: varying olivetolic acid (0.5 μM-1.5 mM), constant GPP (1 mM), pH 8.5, 30° C., 15 min, n=3
Method: (§1) FIG. 4 includes graphs showing steady state kinetic analysis of Helichrysum umbraculigerum PT1 (HuPT1; SEQ ID NO: 1), HuPT3 (SEQ ID NO: 3) and HuPTx (SEQ ID NO: 7) with olivetolic acid and GPP. The Michaelis-Menten Km value of each enzyme was calculated using varying olivetolic acid (0.5 μM-1.5 mM) and constant GPP (1 mM) concentrations (n=3 technically independent samples; measurements were plotted individually).
(§2) HuPT1 (SEQ ID NO: 1), HuPT2 (SEQ ID NO: 2), HuPT3 (SEQ ID NO: 3), HuPTx (SEQ ID NO: 7) genes from H. umbraculigerum and GOT4 gene from Cannabis sativa were separately cloned into pESC-HIS vector. Microsomal preparations from yeast cells transformed with pESC-HIS vectors were performed as described by Jozwiak et al. (2020). PT enzymatic assay was carried out as described previously for CsGOT4 (Luo et al., 2019).
(§3) Microsomes (2 μl) were dissolved in reaction buffer (50 mM Tris-HCl, 10 mM MgCl2, pH 8.5) and substrate was added [0.5 μM-1.5 mM μM olivetolic acid (Cayman Chemicals), 1 mM geranyl pyrophosphate (GPP, Sigma Aldrich)] to a total volume of 50 μl. Samples were incubated for 15 min at 30° C. Samples were extracted with 100 μl […] followed by vortexing and centrifugation. The organic layer was filtered and analyzed via UPLC-qTOF and Triple Quad (TQ) instruments. […]

[2] = tested on: Helichrysum umbraculigerum PT1 (HuPT1; SEQ ID NO: 1), N-terminal plastid targeting sequence removed; test: Steady state kinetic analysis of HuPT1 with olivetolic acid and GPP (yeast microsomes, CBGA production); assay type: biochemical; details: varying olivetolic acid (0.5 μM-1.5 mM), constant GPP (1 mM), pH 8.5, 30° C., 15 min, n=3
Method: as §1, §2, §3

[3] = tested on: Helichrysum umbraculigerum HuPT3 (SEQ ID NO: 3), N-terminal plastid targeting sequence removed; test: Steady state kinetic analysis of HuPT3 with olivetolic acid and GPP (yeast microsomes, CBGA production); assay type: biochemical; details: varying olivetolic acid (0.5 μM-1.5 mM), constant GPP (1 mM), pH 8.5, 30° C., 15 min, n=3
Method: as §1, §2, §3

[4] = tested on: Cannabis sativa geranylpyrophosphate:olivetolate geranyltransferase 4 (CsGOT4); details: Luo et al., 2019; cited from earlier work
[5] = In vitro enzymatic assay with PTs: CBGA production by yeast microsomal fractions; assay type: biochemical; details: purified yeast microsomal fraction expressing the PT; OA and GPP as substrates; LC-MS
From the text: FIG. 2 includes a graph showing in vitro production of cannabigerolic acid (CBGA). Purified microsomal fraction from yeast cells expressing prenyltransferases (PTs) were used in enzyme assay containing olivetolic acid (OA) and geranylpyrophosphate (GPP). Cannabis sativa geranylpyrophosphate:olivetolate geranyltransferase 4 (CsGOT4) enzyme assay was used as positive control in experiment. Extracted ion chromatograms (EICs) are shown. LC-MS was used for assay products analysis. Standard—STD; Negative control—Empty vector.
as §2
The inventors profiled six tissues (young leaf, old leaf, florets and receptacles of flowers, stems, and roots) from H. umbraculigerum, using UPLC-qTOF, and identified CBGA in all the tissues, excluding roots (FIG. 1). CBGA is the known central precursor to Δ^9-tetrahydrocannabinolic acid (THCA), cannabidiolic acid (CBDA) and several other cannabinoids. It is produced from olivetolic acid (OA) and geranyl pyrophosphate (GPP) by an enzymatic reaction catalyzed by geranylpyrophosphate:olivetolate geranyltransferase 4 (GOT4). To identify genes in H. umbraculigerum associated with GOT4 like activity, the inventors searched for candidate prenyltransferase genes in Helichrysum transcriptome. Four prenyltransferase like genes, namely, HuPT1 (SEQ ID NO: 1), HuPT2 (SEQ ID NO: 2), HuPT3 (SEQ ID NO: 3) and HuPTx (SEQ ID NO: 7) were selected for further characterization based on their differential expression profile in leaves compared to other tissues. All these PTs shared less than 40% homology with CsGOT4 that is known to partake in cannabinoid biosynthesis. […]

Molecule	Km [1] [µM]	Km [2] [µM]	Km [3] [µM]	Km [4] [µM]	production of CBGA (PT activity) [5]
CCCCCc1cc(O)cc(O)c1C(=O)O [olivetolic acid]	2 ± 0.8	19 ± 6.3	110 ± 44.3	6.7 ± 0.3	
HuPT1: Prenyltransferase from Helichrysum umbraculigerum, gene SEQ ID NO: 1, expressed in yeast microsomes (protein) MELSLSSSSSSSLPQLHTHPSSSSSSSHYIKKSPFFINKFNNHTKCKFHNSSALRTNFFYTTITKTSSSRFVLNKNPNQFSVKACSQVGSAGSDPALNKVADFKDAFWRFLRPHTIRGTALGSVSLVTRALLENPNLIRWSLLLKAFSGLVALICGNGYIVGINQIYDIGIDKVNKPYLPIAAGDLSVQSAWFLVLAFAMVGVIIVGMNFGPFITSLYSLGLFLGTIYSVPPLRMKRFPVVAFLIIATVRGFLLNFGVYYAVRAALGLTFQWSSAVAFITTFVTLFALVIAITKDLPDVEGDRKFQISTFATKLGVRNIALLGSGLLLINYIGSIVAALYMPQAFRSSLMIPLHTILASCLIYQAWILERANYTQEAIAGYYRFVWNLFYSEYIIFPFI					clear production of CBGA
HuPT3: Prenyltransferase from Helichrysum umbraculigerum, gene SEQ ID NO: 3, expressed in yeast microsomes (protein) MKSLIIGSFSNKVSCYSPSLPDSSSSLIPTGCYHVSLRTFQRNRAIQAQSSLVRCNIGKFNETLLLSRKRSTKHVACAVSEQPIEPDATNPQSSLPNALDAFYRFSRPHTVIGTALSIVSVSLLAVQKLSDFSPLFFIGVFEAIVAAFFMNIYIVGLNQLSDIEIDKVNKPYLPLASGEYSVQTGIIIVSSFAVMSFWLGWIVGSWPLFWALFISFLLGTAYSINIPMLRWKRFALVAAMCILAVRAIIVQVAFYLHIQTFVYGRLAVFPKPVIFATGFMSFFSVVIALFKDIPDIVGDKIFGIQSFTVRMGQKRVFWICILLLEIAYGVAILVGASSPFLWSRYITVLGHAILGLILWGRAKSTDLESKSAITSFYMFIWQLFYAEYLLIPLVR					clear production of CBGA
HuPTx: Prenyltransferase from Helichrysum umbraculigerum, gene SEQ ID NO: 7, expressed in yeast microsomes (protein) MASLAIGSLGSPSSRQCSSPVASSSSFAIGSQIASKFLRISKFDKTKNSPLTLQQKHINKSIDQSFFEPLPLHKINKDKFKLYATSTNNPQFDATHDLKTPEVSIINFVDALYRLIRPYTAVVTIVSVVAMSLLTVNSLSDFSPLFFIKVVQALIGGIFMQMYVSGFNQICDIELDKVNKQSLPLAAGELSMKTAIVIASLSAIMSLSIGWFVGSPPLLWCLVWWFIVGTAYSANVLPYLRWKRFPFTAAFCAMTSRALVLPIGYYLHMQNSIPGVSALLSRPILFAVAMLSAFSLSAMFFKDIPDIKGDRMHGIKSLAIKLGEKRVYWISISIIEIAYIAAAFIGATSPISWSKYVTIIGHLGMGLLLWVRARSVDPTNTVAVQSMYMFLIKLVYAEYGLISLVR					clear production of CBGA
